From ChEMBL document CHEMBL1201862, “PubChem BioAssay data set” (2004) come the findings set out here.

Each structure is given as a SMILES string. Calls of active or inactive are those of the source.

The target in data set [1] is T1, Probable nicotinate-nucleotide adenylyltransferase (Staphylococcus aureus (strain N315), UniProt P65502). The data set is classed as functional, Staphylococcus aureus subsp. aureus N315.
The target of data set [2] is T1, Probable nicotinate-nucleotide adenylyltransferase. The format is functional, Staphylococcus aureus subsp. aureus N315. Conditions: read-out: IC50_Mean.
In data set [3] the target is T2, Sentrin-specific protease 8 (Homo sapiens, UniProt Q96LD8).
T2 sequence (Q96LD8 whole entry): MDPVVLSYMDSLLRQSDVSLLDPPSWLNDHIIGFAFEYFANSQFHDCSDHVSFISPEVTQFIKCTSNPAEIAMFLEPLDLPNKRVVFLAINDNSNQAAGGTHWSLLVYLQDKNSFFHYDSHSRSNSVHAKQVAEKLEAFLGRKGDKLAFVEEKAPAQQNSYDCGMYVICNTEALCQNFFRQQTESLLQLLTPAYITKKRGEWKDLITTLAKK
The data set is classed as functional.

Data set [4] addresses T2, Sentrin-specific protease 8. The format is functional. This is another data set of the same source.
The target of the next data set is Cytochrome P450 3A4 (Homo sapiens, UniProt P08684).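 Also: CYP3A4 tested as one member of a cytochrome P450 panel screen.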
In data set [5] the target is T3, Corticotropin-releasing factor receptor 2/Corticotropin-releasing factor-binding protein (Homo sapiens, UniProt P24387+Q13324).
T3 sequence (Q13324 whole entry): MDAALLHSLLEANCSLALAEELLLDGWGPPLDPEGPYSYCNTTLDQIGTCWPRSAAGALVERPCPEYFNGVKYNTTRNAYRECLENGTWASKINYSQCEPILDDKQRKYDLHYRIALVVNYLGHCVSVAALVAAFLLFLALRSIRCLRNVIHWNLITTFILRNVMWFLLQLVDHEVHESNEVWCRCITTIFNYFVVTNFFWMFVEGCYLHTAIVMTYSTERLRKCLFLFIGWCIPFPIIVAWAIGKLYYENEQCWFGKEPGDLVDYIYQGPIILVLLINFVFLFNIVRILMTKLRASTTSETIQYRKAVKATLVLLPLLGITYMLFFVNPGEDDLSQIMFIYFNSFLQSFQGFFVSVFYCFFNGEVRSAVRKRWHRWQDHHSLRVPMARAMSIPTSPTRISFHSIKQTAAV
T3 sequence (P24387 whole entry): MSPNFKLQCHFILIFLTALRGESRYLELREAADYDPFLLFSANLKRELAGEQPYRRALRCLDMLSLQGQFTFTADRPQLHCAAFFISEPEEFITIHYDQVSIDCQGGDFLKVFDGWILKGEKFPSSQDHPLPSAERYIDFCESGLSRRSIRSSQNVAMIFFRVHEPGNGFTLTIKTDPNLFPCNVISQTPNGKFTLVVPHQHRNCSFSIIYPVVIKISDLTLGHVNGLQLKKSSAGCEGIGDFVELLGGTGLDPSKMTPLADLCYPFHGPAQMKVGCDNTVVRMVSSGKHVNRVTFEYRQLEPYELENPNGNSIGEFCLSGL
As to the kind of experiment: Dose Response confirmation of uHTS hits for small molecule antagonists of the CRF-binding protein and CRF-R2 receptor complex. The data set is classed as functional. Conditions: read-out: IC50_Mean.

The target in data set [6] is T3, Corticotropin-releasing factor receptor 2/Corticotropin-releasing factor-binding protein. As to the kind of experiment: activators of CRF receptor 2 with binding protein – uHTS hits, confirmation (AID 602473). The data set is classed as functional. Conditions: read-out: EC50_Mean.
The target of the next data set is Cytochrome P450 2C9 (Homo sapiens, UniProt P11712).
A further data set concerns the target T4, Cytochrome P450 1A2 (Homo sapiens, UniProt P05177).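 Also: PubChem cytochrome P450 panel assay, CYP1A2 panel member.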
T4 sequence (P05177 whole entry): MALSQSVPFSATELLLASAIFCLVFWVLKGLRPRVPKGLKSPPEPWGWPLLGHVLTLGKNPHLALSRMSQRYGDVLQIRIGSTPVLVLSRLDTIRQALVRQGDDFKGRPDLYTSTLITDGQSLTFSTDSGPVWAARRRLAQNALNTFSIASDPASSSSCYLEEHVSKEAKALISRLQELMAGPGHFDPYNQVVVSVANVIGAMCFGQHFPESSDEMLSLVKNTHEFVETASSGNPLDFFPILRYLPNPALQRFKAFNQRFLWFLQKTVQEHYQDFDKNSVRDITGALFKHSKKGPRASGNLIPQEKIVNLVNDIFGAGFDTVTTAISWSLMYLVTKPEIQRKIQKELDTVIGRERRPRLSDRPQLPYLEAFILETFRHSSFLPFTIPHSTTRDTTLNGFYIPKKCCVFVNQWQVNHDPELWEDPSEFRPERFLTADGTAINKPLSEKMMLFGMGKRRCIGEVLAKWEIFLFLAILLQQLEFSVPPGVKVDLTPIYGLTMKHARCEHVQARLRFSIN

A short description of data set [7]: blockers of CRF-binding protein–CRF-R2 complex – cell-based, uHTS hits, 384-well, dose response (AID 651639). The format is functional, Homo sapiens. Conditions: read-out: IC50_Mean.
A further data set is described as follows: cells. The format is functional, cell-based. Conditions: HEK-CNG.
A further data set concerns the target Galanin receptor type 3 (Homo sapiens, UniProt O60755). As to the kind of experiment: Fluorescence-based cell-based primary high throughput dose response assay to identify antagonists of the Galanin Receptor 3 (GalR3). The data set is classed as functional.
Data set [8] has as its target T5, Small ubiquitin-related modifier 1 (Homo sapiens, UniProt P63165). Description: SUMO1 protein interaction blockers, potency – biochemical, fluorescence polarization, uHTS hits, dose response (AID 624382). The data set is classed as functional. Conditions: read-out: IC50_Mean. (In general: Polarisation of emitted light reports the rotation of a fluorescent probe.)

In another data set the test system is Vero. As to the kind of experiment: cells. The format is functional. Conditions: Chlorocebus sabaeus.
For data set [9], the target named is T6, Low molecular weight phosphotyrosine protein phosphatase (Homo sapiens, UniProt P24666).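 Also: Dose-response confirmation assay measuring inhibition of LMPTP enzyme activity by fluorescence intensity read-out.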
T6 sequence (P24666 whole entry): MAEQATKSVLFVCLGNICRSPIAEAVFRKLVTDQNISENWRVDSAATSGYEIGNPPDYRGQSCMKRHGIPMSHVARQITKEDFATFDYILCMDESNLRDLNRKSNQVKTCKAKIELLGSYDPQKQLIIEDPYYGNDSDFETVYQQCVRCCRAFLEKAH
The data set is classed as functional. Conditions: read-out: IC50_Mean.

For data set [10], the target named is T5, Small ubiquitin-related modifier 1. As to the kind of experiment: SUMO1 protein-protein binding blockers, potency – biochemical, FRET, dose response (AID 624383). The format is functional. Conditions: read-out: IC50_Mean.
Data set [11] deals with T7, Replicative DNA helicase DnaB (Mycobacterium tuberculosis, UniProt P9WMR3).
T7 sequence (P9WMR3 whole entry): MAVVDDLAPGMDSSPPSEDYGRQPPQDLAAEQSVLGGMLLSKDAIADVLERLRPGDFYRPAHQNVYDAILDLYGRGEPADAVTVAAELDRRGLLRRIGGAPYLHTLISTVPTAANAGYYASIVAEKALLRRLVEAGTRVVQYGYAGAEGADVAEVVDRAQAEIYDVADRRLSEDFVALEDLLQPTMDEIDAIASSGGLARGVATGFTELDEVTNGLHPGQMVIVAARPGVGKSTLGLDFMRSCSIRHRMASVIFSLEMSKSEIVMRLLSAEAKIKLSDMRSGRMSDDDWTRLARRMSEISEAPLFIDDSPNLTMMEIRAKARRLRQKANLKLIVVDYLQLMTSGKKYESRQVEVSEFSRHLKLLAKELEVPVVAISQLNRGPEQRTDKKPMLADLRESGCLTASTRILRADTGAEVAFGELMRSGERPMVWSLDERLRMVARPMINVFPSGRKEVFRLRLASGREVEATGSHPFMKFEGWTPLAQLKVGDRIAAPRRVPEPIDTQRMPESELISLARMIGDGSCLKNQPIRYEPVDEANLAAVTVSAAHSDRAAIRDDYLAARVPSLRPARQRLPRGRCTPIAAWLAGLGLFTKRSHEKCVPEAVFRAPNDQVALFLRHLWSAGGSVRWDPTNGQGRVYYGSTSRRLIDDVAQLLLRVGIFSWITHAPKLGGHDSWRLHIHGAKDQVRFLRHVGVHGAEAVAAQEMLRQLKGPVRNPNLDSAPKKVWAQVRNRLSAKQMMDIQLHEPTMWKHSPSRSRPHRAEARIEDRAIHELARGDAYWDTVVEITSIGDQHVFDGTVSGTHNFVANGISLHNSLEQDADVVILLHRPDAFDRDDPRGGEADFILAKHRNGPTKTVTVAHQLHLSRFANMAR
Description: DnaB intein splicing inhibitors, dose response, biochemical, cell-free fluorescence (AID 449749). The data set is classed as functional.

The target of a further data set is T8, Protein RecA (Mycobacterium tuberculosis, UniProt P9WHJ3).
T8 sequence (P9WHJ3 whole entry): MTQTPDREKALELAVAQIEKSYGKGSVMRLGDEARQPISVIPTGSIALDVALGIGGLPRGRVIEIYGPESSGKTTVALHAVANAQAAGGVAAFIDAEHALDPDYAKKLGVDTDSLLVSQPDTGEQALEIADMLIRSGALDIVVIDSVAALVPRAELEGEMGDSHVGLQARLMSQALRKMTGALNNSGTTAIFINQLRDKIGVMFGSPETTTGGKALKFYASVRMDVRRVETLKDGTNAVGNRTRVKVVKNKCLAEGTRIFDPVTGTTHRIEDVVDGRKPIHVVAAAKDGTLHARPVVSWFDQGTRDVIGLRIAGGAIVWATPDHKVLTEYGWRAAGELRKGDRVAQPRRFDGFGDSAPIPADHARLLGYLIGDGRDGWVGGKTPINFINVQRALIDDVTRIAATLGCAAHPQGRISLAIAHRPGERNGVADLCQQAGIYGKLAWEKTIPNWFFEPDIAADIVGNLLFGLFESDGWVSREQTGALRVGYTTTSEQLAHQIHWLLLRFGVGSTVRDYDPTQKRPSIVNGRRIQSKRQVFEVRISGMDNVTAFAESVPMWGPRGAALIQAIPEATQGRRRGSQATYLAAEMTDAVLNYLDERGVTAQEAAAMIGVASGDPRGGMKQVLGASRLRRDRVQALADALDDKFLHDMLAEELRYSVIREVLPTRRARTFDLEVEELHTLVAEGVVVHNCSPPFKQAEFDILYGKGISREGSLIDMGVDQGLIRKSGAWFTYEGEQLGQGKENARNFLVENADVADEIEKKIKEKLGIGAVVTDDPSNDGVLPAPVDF
As to the kind of experiment: Fluorescence Cell-Free Homogeneous Dose Retest to Identify Inhibitors of RecA-Intein Splicing Activity. [Related pubchem assays (depositor defined):AID2097, AID2223, AID489010, AID492950]. The format is functional.

T1 sequence (P65502 whole entry): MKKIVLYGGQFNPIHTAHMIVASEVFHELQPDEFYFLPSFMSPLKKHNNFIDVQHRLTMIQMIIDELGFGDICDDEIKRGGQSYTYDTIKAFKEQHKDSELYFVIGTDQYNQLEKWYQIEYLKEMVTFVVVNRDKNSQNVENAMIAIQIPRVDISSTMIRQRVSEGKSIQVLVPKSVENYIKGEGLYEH
Chain of Galanin receptor type 3 (O60755 whole entry): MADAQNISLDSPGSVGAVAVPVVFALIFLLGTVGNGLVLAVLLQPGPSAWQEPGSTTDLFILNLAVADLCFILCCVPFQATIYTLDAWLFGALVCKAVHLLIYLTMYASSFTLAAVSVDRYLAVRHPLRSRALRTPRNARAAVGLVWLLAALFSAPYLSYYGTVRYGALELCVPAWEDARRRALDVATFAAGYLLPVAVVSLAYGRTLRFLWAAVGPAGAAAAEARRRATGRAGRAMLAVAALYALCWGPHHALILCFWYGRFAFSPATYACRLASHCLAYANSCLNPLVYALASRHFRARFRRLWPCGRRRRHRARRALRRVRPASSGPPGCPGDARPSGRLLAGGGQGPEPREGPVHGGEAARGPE
T5 sequence (P63165 whole entry): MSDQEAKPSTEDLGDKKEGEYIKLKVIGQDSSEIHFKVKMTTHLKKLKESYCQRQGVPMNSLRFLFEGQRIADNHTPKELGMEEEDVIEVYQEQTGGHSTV
Chain of Cytochrome P450 2C9 (P11712 whole entry): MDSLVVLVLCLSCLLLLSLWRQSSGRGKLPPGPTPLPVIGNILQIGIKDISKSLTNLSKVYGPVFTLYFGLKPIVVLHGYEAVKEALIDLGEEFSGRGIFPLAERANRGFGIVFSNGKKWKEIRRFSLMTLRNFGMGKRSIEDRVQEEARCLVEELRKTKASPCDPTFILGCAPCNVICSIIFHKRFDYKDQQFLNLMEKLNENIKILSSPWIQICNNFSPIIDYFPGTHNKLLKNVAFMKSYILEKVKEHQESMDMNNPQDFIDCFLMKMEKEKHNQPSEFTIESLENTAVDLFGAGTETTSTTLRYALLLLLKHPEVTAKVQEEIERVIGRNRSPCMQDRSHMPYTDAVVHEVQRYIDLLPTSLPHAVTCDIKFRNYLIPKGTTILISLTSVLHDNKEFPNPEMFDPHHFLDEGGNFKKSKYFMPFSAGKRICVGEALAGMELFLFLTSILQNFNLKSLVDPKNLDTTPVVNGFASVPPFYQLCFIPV
Chain of Cytochrome P450 3A4 (P08684 whole entry): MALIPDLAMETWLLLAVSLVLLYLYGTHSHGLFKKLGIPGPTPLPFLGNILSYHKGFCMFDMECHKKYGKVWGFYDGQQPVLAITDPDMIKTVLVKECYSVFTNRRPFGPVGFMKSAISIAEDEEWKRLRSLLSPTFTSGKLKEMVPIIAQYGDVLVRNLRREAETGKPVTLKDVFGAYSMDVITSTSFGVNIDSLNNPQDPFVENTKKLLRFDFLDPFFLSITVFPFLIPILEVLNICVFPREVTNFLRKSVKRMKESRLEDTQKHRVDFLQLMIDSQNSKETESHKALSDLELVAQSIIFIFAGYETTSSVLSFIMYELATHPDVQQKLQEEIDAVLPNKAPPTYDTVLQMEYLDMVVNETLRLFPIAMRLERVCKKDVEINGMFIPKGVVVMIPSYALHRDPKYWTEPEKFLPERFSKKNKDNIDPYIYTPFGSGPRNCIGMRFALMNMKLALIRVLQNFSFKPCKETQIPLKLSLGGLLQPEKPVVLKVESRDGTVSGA

`COc1ccccc1-n1c(SCc2cc(=O)oc3cc(O)ccc23)nc2ccccc2c1=O`: the IC50 is 15.2 µM (active) in data set [1] and 40.2 µM (active) in data set [2].

With `CCN(CC)c1ccc(NC2CC(=O)N(CCc3ccc(OC)cc3)C2=O)cc1` (configuration not stated), the IC50 is 45.2 µM (active) in [3] and > 100 µM (inactive) in [4].

With `CCOc1cc(C)ccc1OCc1nnc(SCC(=O)c2cccc([N+](=O)[O-])c2)n1C`, the results for the AC50 at Cytochrome P450 3A4, on Cytochrome P450 2C9 and at Cytochrome P450 1A2 were 1.41 µM (inconclusive), “inconclusive” and 15.8 µM (inconclusive), respectively. In addition, the figures for the IC50 in data set [5] and in data set [7] were 2.52 µM (active) and 2.11 µM (active), respectively. In addition, in data set [6], the EC50 was > 53 µM (inactive).

With `Cc1cc(C(=O)CSc2nc(N)cc(O)n2)c(C)n1-c1ccc(OC(F)F)cc1`, the EC50 in the data set “cells” was > 29.9 µM (inactive). In addition, at Galanin receptor type 3, the IC50 was 2.9 µM (active).

`CC(=O)OCC[N+](C)(C)C.[O-][Cl+3]([O-])([O-])[O-]`: in the data set “cells”, the EC50 was > 29.9 µM (inactive). For the same compound, the IC50 on Galanin receptor type 3 was 0.618 µM (active).

Turning to `O=C(Nc1ccc2oc(=O)ccc2c1)c1ccc(-c2cccc([N+](=O)[O-])c2)o1`, the IC50 was > 66.6 µM (inactive) in data set [8], 25.5 µM (inactive) in data set [9] and 2.43 µM (active) in data set [10]. Further, in the data set on Vero, the CC50 is 8.41 µM (active).

For the compound `CC1=NN(c2ccc(S(=O)(=O)O)cc2C)C(=O)C1`, the IC50 was 21.8 µM (active) in [3] and 28 µM (active) in [4]. Also, the AC50 in [11] was 3.99 µM (active). Also, the EC50 at Protein RecA was 4.57 µM (active).

As usually defined, the AC50 is the concentration giving half of the maximal activity seen. The CC50 is the concentration at which the toxic effect on the cells reaches its halfway point.
